In patent publication US11414379B2, “SPAK kinase inhibitors as neuroprotective agents” (United States Government as represented by the Department …, priority 2018, dated 2022):

Columns and labels:
Assay in all cases: Kinase panel (Dundee profiling)
Type in all cases: biochemical
Settings in all cases: read-out: % residual kinase activity
HIPK2 = HIPK2 (Homo sapiens, UniProt Q9H2X6)
Experimental: (§1) The kinase selectivity of ZT-1a was further assessed using standard radioisotopic enzymatic assays against a panel of 140 recombinant kinases (Dundee profiling, Table 2) (Bain et al. (2007) The Biochemical journal 408, 297-315). ZT-1a at a concentration of 10 μM inhibited only MAPKAP-K2 activity 85±7% compared to DMSO control, representing high kinase selectivity.
(§2) Referring to Table 2, ZT-1a was tested at 10 and 1 μM against a panel of 140 recombinant kinases in an enzymatic activity-based assay performed by the International Centre for Kinase Profiling in the MRC Protein Phosphorylation and Ubiquitylation Unit. Values represent % residual kinase activity (mean+/−SEM, n=3). Kinases labelled with an asterick* are inhibited ≥50% by ZT-1a.

MEKK1 = MEKK1 (Homo sapiens, UniProt Q13233)
Experimental: as §1, §2

S6K1 = S6K1 (Homo sapiens, UniProt P23443)
Experimental: as §1, §2

MST4 = MST4 (Homo sapiens, UniProt Q9P289)
Experimental: as §1, §2

SIK3 = SIK3 (Homo sapiens, UniProt Q9Y2K2)
Experimental: as §1, §2

ERK8 = ERK8 (Homo sapiens, UniProt Q8TD08)
Experimental: as §1, §2

TGFBR1 = TGFBR1 (Homo sapiens, UniProt P36897)
Experimental: as §1, §2

SRPK1 = SRPK1 (Homo sapiens, UniProt Q96SB4)
Experimental: as §1, §2

PAK4 = PAK4 (Homo sapiens, UniProt O96013)
Experimental: as §1, §2

IKKb = IKKb (Homo sapiens, UniProt O14920)
Experimental: as §1, §2

ASK1 = ASK1 (Homo sapiens, UniProt Q99683)
Experimental: as §1, §2

OSR1 = OSR1 (Homo sapiens, UniProt O95747)
Experimental: as §1, §2

CSK = CSK (Homo sapiens, UniProt P41240)
Experimental: as §1, §2

TTK = TTK (Homo sapiens, UniProt P33981)
Experimental: as §1, §2

Src = Src (Homo sapiens, UniProt P12931)
Experimental: as §1, §2

VEG-FR = VEG-FR (Homo sapiens, UniProt P17948)
Experimental: as §1, §2

MSK1 = MSK1 (Homo sapiens, UniProt O75582)
Experimental: as §1, §2

MARK3 = MARK3 (Homo sapiens, UniProt P27448)
Experimental: as §1, §2

BRK = BRK (Homo sapiens, UniProt Q13882)
Experimental: as §1, §2

CK1γ2 = CK1γ2 (Homo sapiens, UniProt P78368)
Experimental: as §1, §2

IGF-1R = IGF-1R (Homo sapiens, UniProt P08069)
Experimental: as §1, §2

DAPK1 = DAPK1 (Homo sapiens, UniProt P53355)
Experimental: as §1, §2

Aurora A = Aurora A (Homo sapiens, UniProt O14965)
Experimental: as §1, §2

PKBb = PKBb (Homo sapiens, UniProt P31751)
Experimental: as §1, §2

MKK1 = MKK1 (Homo sapiens, UniProt Q02750)
Experimental: as §1, §2

EPH-B1 = EPH-B1 (Homo sapiens, UniProt P54762)
Experimental: as §1, §2

p38g MAPK = p38g MAPK (Homo sapiens, UniProt P53778)
Experimental: as §1, §2

PHK = PHK (Homo sapiens, UniProt Q16816)
Experimental: as §1, §2

TAK1 = TAK1 (Homo sapiens, UniProt O43318)
Experimental: as §1, §2

MPSK1 = MPSK1 (Homo sapiens, UniProt O75716)
Experimental: as §1, §2

HIPK3 = HIPK3 (Homo sapiens, UniProt Q9H422)
Experimental: as §1, §2

JNK2 = JNK2 (Homo sapiens, UniProt P45984)
Experimental: as §1, §2

Sequence of PKBb (P31751 whole entry): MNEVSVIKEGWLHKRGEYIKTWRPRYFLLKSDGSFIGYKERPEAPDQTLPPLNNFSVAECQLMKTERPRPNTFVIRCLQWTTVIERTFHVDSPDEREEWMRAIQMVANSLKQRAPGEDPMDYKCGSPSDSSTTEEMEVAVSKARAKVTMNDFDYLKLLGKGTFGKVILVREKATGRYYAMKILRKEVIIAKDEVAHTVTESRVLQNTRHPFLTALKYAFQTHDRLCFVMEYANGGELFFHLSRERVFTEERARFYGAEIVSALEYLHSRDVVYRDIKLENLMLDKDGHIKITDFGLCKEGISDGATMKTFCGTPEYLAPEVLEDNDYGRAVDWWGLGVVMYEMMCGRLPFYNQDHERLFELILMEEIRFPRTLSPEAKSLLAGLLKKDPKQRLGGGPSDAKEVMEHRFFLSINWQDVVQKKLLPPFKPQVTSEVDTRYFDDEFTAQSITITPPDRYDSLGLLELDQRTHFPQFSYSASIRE
Sequence of SIK3 (Q9Y2K2 whole entry, species assumed): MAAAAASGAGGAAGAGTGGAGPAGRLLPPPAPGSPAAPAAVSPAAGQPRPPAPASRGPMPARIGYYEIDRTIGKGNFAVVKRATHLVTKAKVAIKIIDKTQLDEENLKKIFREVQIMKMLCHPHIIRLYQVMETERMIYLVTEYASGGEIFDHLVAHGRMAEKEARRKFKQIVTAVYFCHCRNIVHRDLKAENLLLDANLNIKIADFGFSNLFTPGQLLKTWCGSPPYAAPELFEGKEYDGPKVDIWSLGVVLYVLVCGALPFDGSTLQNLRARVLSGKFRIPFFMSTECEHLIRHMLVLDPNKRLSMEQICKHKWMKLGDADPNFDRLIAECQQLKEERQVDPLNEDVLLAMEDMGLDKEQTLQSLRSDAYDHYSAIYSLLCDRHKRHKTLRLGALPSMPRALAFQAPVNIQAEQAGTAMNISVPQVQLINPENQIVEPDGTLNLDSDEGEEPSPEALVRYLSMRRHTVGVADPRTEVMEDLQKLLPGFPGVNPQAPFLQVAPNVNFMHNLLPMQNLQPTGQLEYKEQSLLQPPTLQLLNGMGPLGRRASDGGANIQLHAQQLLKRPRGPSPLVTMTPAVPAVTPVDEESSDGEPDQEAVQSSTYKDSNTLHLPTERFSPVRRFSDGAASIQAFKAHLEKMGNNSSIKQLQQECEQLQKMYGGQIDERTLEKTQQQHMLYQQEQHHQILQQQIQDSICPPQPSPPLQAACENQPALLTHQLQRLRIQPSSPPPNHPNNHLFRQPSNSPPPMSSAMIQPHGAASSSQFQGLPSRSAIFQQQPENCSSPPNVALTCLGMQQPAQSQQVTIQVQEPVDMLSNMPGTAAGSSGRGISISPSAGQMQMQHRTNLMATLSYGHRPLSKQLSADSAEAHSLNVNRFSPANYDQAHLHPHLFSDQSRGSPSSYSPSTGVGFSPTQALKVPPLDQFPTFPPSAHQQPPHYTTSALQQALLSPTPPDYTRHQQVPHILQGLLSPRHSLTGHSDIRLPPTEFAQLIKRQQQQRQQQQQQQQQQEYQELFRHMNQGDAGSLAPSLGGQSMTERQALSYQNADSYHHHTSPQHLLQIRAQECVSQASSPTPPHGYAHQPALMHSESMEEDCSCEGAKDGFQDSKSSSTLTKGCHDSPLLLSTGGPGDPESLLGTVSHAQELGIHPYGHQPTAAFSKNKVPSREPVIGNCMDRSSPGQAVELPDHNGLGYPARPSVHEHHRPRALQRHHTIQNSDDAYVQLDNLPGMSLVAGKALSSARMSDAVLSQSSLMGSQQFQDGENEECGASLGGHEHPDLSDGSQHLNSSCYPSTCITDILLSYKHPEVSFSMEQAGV
Sequence of TAK1 (O43318 1-303 limits assumed): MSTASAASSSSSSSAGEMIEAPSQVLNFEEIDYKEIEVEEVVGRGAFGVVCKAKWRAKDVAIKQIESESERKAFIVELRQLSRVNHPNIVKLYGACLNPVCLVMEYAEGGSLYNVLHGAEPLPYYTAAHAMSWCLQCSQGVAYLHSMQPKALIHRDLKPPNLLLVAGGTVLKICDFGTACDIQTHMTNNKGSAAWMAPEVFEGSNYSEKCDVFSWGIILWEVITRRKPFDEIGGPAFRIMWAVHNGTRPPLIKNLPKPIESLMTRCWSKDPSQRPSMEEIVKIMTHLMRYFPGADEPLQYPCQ
Sequence of TAK1 (Q15750 437-504 partner limits assumed): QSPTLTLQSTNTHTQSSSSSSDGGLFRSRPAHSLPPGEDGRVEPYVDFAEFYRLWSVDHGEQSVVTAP
Sequence of PHK (Q16816 whole entry): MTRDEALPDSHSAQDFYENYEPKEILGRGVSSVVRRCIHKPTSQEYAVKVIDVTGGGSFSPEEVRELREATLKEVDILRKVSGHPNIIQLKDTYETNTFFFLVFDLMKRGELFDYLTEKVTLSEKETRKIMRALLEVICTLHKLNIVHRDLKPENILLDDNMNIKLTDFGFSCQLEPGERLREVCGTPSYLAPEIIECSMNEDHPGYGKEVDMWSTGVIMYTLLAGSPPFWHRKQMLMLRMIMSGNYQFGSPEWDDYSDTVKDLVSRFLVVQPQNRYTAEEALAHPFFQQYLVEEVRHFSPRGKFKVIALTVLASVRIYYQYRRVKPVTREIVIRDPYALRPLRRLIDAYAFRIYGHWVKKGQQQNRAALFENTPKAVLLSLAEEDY
Sequence of MEKK1 (Q13233 whole entry, species assumed): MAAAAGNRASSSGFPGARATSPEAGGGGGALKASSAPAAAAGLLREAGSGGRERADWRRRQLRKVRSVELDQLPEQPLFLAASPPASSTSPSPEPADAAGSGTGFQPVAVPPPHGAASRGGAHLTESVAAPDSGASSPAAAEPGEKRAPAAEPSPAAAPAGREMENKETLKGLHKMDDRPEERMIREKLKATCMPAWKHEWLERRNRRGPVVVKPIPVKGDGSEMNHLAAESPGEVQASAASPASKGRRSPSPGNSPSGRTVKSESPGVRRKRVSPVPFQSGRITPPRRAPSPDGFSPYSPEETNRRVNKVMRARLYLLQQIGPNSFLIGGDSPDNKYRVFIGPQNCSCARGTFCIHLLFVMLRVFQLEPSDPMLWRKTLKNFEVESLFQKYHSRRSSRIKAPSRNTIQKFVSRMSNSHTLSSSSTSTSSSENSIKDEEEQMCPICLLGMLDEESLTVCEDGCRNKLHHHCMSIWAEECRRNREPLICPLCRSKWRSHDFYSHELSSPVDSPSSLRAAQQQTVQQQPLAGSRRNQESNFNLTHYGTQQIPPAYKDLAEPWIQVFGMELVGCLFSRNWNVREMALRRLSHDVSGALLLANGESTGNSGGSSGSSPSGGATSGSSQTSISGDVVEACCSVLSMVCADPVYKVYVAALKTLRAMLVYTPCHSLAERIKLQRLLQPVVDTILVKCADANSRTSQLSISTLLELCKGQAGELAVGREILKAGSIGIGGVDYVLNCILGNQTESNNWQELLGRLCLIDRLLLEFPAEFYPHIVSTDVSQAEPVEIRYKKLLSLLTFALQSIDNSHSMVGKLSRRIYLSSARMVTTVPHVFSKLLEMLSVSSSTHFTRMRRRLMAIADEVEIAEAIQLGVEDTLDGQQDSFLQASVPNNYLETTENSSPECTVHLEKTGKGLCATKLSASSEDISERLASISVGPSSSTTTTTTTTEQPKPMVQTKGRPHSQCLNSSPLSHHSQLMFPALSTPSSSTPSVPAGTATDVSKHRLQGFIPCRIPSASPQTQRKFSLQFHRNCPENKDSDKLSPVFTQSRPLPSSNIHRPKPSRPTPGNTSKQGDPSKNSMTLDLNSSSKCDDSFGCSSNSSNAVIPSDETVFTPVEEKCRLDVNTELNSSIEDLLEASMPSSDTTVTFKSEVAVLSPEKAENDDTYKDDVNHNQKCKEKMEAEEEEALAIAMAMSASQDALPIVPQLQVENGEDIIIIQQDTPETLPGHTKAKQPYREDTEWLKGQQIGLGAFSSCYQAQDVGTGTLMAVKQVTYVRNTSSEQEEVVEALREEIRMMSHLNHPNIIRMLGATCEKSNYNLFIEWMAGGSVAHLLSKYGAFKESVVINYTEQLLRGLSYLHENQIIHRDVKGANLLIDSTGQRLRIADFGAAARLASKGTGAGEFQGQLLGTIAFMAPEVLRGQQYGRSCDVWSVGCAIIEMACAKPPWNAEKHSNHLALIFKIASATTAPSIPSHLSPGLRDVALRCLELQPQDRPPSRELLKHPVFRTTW
Sequence of p38g MAPK (P53778 whole entry): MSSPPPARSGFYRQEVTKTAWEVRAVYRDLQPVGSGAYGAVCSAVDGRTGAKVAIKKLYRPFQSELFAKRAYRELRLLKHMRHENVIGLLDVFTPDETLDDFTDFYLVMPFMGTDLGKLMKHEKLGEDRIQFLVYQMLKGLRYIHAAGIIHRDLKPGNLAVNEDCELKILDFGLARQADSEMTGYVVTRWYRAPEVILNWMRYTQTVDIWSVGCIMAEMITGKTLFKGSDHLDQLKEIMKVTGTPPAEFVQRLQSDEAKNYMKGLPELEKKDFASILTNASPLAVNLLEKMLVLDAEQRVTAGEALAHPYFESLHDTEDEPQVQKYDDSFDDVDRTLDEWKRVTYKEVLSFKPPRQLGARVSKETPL
Sequence of CK1γ2 (P78368 whole entry): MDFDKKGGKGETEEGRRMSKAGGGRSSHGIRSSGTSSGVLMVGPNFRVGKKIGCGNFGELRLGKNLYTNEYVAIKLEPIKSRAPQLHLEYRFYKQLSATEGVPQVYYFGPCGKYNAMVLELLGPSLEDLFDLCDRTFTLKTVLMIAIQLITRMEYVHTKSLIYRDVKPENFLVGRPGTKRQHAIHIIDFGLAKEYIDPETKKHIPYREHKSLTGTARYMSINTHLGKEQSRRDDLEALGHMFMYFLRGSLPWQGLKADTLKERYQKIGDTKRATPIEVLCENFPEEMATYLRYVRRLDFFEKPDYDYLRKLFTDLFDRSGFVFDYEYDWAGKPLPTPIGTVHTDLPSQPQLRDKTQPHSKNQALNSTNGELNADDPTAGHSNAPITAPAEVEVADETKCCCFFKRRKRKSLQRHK

## Cc1cc(C(C#N)c2ccc(Cl)cc2)c(Cl)cc1NC(=O)c1cc(Cl)ccc1O (stereo not shown) [ZT-1a, 5-chloro-N-(5-chloro-4-((4-chlorophenyl)(cyano)methyl)-2-methylphenyl)-2-hydroxy-benzamide]
HIPK2; 1 μM
  remaining activity at 1 µM: 90 ± 14%
HIPK2; 10 μM
  remaining activity at 10 µM: 91 ± 4%
MEKK1; 1 μM
  remaining activity at 1 µM: 109 ± 1%
MEKK1; 10 μM
  remaining activity at 10 µM: 93 ± 16%
S6K1; 1 μM
  remaining activity at 1 µM: 119 ± 10%
S6K1; 10 μM
  remaining activity at 10 µM: 81 ± 2%
MST4; 1 μM
  remaining activity at 1 µM: 63 ± 10%
MST4; 10 μM
  remaining activity at 10 µM: 63%
SIK3; 1 μM
  remaining activity at 1 µM: 104 ± 9%
SIK3; 10 μM
  remaining activity at 10 µM: 88%
ERK8; 1 μM
  remaining activity at 1 µM: 104 ± 11%
ERK8; 10 μM
  remaining activity at 10 µM: 63 ± 3%
TGFBR1; 1 μM
  remaining activity at 1 µM: 63 ± 9%
TGFBR1; 10 μM
  remaining activity at 10 µM: 77 ± 5%
SRPK1; 1 μM
  remaining activity at 1 µM: 104 ± 5%
SRPK1; 10 μM
  remaining activity at 10 µM: 73 ± 20%
PAK4; 1 μM
  remaining activity at 1 µM: 81 ± 16%
PAK4; 10 μM
  remaining activity at 10 µM: 51 ± 3%
IKKb; 1 μM
  remaining activity at 1 µM: 101%
IKKb; 10 μM
  remaining activity at 10 µM: 78 ± 3%
ASK1; 1 μM
  remaining activity at 1 µM: 101 ± 3%
ASK1; 10 μM
  remaining activity at 10 µM: 100 ± 11%
OSR1; 1 μM
  remaining activity at 1 µM: 106 ± 9%
OSR1; 10 μM
  remaining activity at 10 µM: 98 ± 3%
CSK; 1 μM
  remaining activity at 1 µM: 96 ± 8%
CSK; 10 μM
  remaining activity at 10 µM: 106 ± 29%
TTK; 1 μM
  remaining activity at 1 µM: 104 ± 2%
TTK; 10 μM
  remaining activity at 10 µM: 91 ± 5%
Src; 1 μM
  remaining activity at 1 µM: 107 ± 4%
Src; 10 μM
  remaining activity at 10 µM: 84 ± 13%
VEG-FR; 1 μM
  remaining activity at 1 µM: 113 ± 10%
VEG-FR; 10 μM
  remaining activity at 10 µM: 88 ± 28%
MSK1; 1 μM
  remaining activity at 1 µM: 114 ± 6%
MSK1; 10 μM
  remaining activity at 10 µM: 112 ± 14%
MARK3; 1 μM
  remaining activity at 1 µM: 71 ± 6%
MARK3; 10 μM
  remaining activity at 10 µM: 68 ± 8%
BRK; 1 μM
  remaining activity at 1 µM: 116 ± 12%
BRK; 10 μM
  remaining activity at 10 µM: 103 ± 2%
CK1γ2; 1 μM
  remaining activity at 1 µM: 112 ± 12%
CK1γ2; 10 μM
  remaining activity at 10 µM: 124 ± 23%
IGF-1R; 1 μM
  remaining activity at 1 µM: 145 ± 2%
IGF-1R; 10 μM
  remaining activity at 10 µM: 123 ± 3%
DAPK1; 1 μM
  remaining activity at 1 µM: 131 ± 8%
DAPK1; 10 μM
  remaining activity at 10 µM: 159 ± 11%
Aurora A; 1 μM
  remaining activity at 1 µM: 73 ± 19%
Aurora A; 10 μM
  remaining activity at 10 µM: 65 ± 1%
PKBb; 1 μM
  remaining activity at 1 µM: 76 ± 14%
PKBb; 10 μM
  remaining activity at 10 µM: 51 ± 13%
MKK1; 1 μM
  remaining activity at 1 µM: 106 ± 2%
MKK1; 10 μM
  remaining activity at 10 µM: 114 ± 17%
EPH-B1; 1 μM
  remaining activity at 1 µM: 77 ± 15%
EPH-B1; 10 μM
  remaining activity at 10 µM: 80 ± 19%
p38g MAPK; 1 μM
  remaining activity at 1 µM: 100 ± 11%
p38g MAPK; 10 μM
  remaining activity at 10 µM: 100 ± 6%
PHK; 1 μM
  remaining activity at 1 µM: 97 ± 3%
PHK; 10 μM
  remaining activity at 10 µM: 107 ± 2%
TAK1; 1 μM
  remaining activity at 1 µM: 117 ± 22%
TAK1; 10 μM
  remaining activity at 10 µM: 103 ± 5%
MPSK1; 1 μM
  remaining activity at 1 µM: 110 ± 6%
MPSK1; 10 μM
  remaining activity at 10 µM: 105 ± 2%
HIPK3; 1 μM
  remaining activity at 1 µM: 84 ± 3%
HIPK3; 10 μM
  remaining activity at 10 µM: 76 ± 2%
JNK2; 1 μM
  remaining activity at 1 µM: 102 ± 2%
JNK2; 10 μM
  remaining activity at 10 µM: 147 ± 51%
